Reference: ChEMBL document CHEMBL1134179, “Equilibrium and kinetics studies of transnitrosation between S-nitrosothiols and thiols” (Bioorg Med Chem Lett, 2001)

Test: pKa value was determined
Format: physicochemical

SMILES | pKa
CCOC(=O)[C@@H](N)CS | 6.5
CC(=O)N[C@@H](CS)C(=O)O [ACETYLCYSTEINE] | 9.52
N[C@@H](CCC(=O)N[C@@H](CS)C(=O)NCC(=O)O)C(=O)O [GLUTATHIONE] | 8.75

Results, then the compound that gave them:

pKa | SMILES
9.9 | CC(=O)NC(C(=O)O)C(C)(C)S (stereo not given) [N-ACETYL PENICILLAMINE]
8.53 | CC(C)(S)[C@@H](N)C(=O)O [PENICILLAMINE]
